Laboratory results: patent US20140256664A1, “COMPOSITIONS AND METHODS FOR A MYCOBACTERIUM TUBERCULOSIS DRUG SUSCEPTIBILITY TEST” (priority 2011, published 2014)
Counter-ions that a name gives are not always drawn. Like-named read-outs stand apart in the source and are kept apart here.

Columns and labels:
Assay type in all cases: cell-based, Mycobacterium tuberculosis
[1] = system: 33 isolates of M. tuberculosis; conditions: for need for drug pre-treatment prior to phage incubation: Tb inoculum and phage added simultaneously, significant ΔCt in 24 hour
M. tuberculosis isolates [2] = system: M. tuberculosis isolates
[3] = system: M. tuberculosis in smear positive sputum sediments; conditions: total 22 sediments
M. tuberculosis isolates [4] = system: M. tuberculosis isolates; remark: listed apart in the source
[5] = system: M. tuberculosis H37Rv (ATCC 27294); test: D29 phage-qPCR assay development on H37Rv; conditions: for duration of drug treatment at which qPCR Ct became clearly disparate from control: drug treatment followed by 24 h phage incubation, FIG. 1D
[6] = strains confirmed as drug susceptible by agar proportion

Compound | need for drug pre-treatment prior to phage incubation [1] | Culture R (n samples) ([3]; sediment phage assay result R) | Culture S (n samples) ([3]; sediment phage assay result R) | Culture R (n samples) ([3]; sediment phage assay result S) | Culture S (n samples) ([3]; sediment phage assay result S) | Agar proportion R (n isolates) (M. tuberculosis isolates [4]; phage assay result R) | Agar proportion S (n isolates) (M. tuberculosis isolates [4]; phage assay result R) | Agar proportion R (n isolates) (M. tuberculosis isolates [4]; phage assay result S) | Agar proportion S (n isolates) (M. tuberculosis isolates [4]; phage assay result S) | other results
N[C@@H]1CON=C1O [Cycloserine, D-cycloserine] | no pre-treatment was required |  |  |  |  |  |  |  |  | 
CO[C@H]1/C=C/O[C@@]2(C)Oc3c(C)c(O)c4c(O)c(c(/C=N/N5CCN(C)CC5)c(O)c4c3C2=O)NC(=O)/C(C)=C\C=C\[C@H](C)[C@H](O)[C@@H](C)[C@@H](O)[C@@H](C)[C@H](OC(C)=O)[C@@H]1C [Rifampin, rifampin] |  | 1 | 0 | 0 | 21 | 5 | 2 | 5 | 142 | Agar proportion susceptible (n isolates) (M. tuberculosis isolates [2]; listed as RIF): 11; D29 phage assay susceptible (n isolates) ([1]; listed as RIF): 11; number of phage / real-time PCR Ct value after drug pre-treatment [5]: the number of phage did not increase/Ct value did not decrease; ΔCtRIF (Ct control−Ct drug) [5]: −12; ΔCt ([5]; H37Rv pre-treated with drug for 72 hours, FIG. 1B): approximately −5; duration of drug treatment at which qPCR Ct became clearly disparate from control ([5]; H37Rv): 24 h
[H]/N=C(/N)N[C@H]1[C@H](O)[C@@H](O)[C@H](O[C@@H]2O[C@@H](C)[C@](O)(C=O)[C@H]2O[C@@H]2O[C@@H](CO)[C@H](O)[C@@H](O)[C@@H]2NC)[C@@H](N/C(N)=N\[H])[C@@H]1O [Streptomycin, streptomycin sulfate] | no pre-treatment was required | 1 | 0 | 1 | 20 | 16 | 0 | 3 | 135 | 
CCc1cc(C(N)=S)ccn1 [Ethionamide, ethionamide] |  |  |  |  |  |  |  |  |  | duration of drug treatment of Tb prior to 24 hours of phage incubation yielding optimal ΔCt [1]: 48 h
CC[C@@H](CO)NCCN[C@@H](CC)CO [Ethambutol, ethambutol hydrochloride] |  | 0 | 0 | 0 | 22 | 0 | 1 | 8 | 145 | Agar proportion susceptible (n isolates) (M. tuberculosis isolates [2]; listed as EMB, hydrochloride): 12; D29 phage assay susceptible (n isolates) ([1]; listed as EMB, hydrochloride): 12; duration of drug treatment of Tb prior to 24 hours of phage incubation yielding optimal ΔCt [1, 6]: 48 h
capreomycin sulfate | no pre-treatment was required |  |  |  |  |  |  |  |  | Agar proportion susceptible (n isolates) (M. tuberculosis isolates [2]; listed as CAP): 31; D29 phage assay susceptible (n isolates) ([1]; listed as CAP): 30
CC(=O)NC[C@H]1CN(c2ccc(N3CCOCC3)c(F)c2)C(=O)O1 [Linezolid, linezolid] | no pre-treatment was required |  |  |  |  |  |  |  |  | 
NNC(=O)c1ccncc1 [Isoniazid, isoniazid] |  | 1 | 3 | 0 | 18 | 22 | 9 | 5 | 118 | number of phage / real-time PCR Ct value after drug pre-treatment [5]: the number of phage did not increase/Ct value did not decrease; need for drug pre-treatment prior to phage incubation ([5]; H37Rv, FIG. 1E, 48 h superior to 24 h, 6 h and 3 h): pre-treatment was required; duration of drug treatment at which qPCR Ct became clearly disparate from control ([5]; H37Rv): 48 h
Nc1ccc(C(=O)O)c(O)c1 [para-aminosalicylic acid] |  |  |  |  |  |  |  |  |  | duration of drug treatment of Tb prior to 24 hours of phage incubation yielding optimal ΔCt [1, 6]: 48 h
NCC[C@H](O)C(=O)N[C@@H]1C[C@H](N)[C@@H](O[C@H]2O[C@H](CN)[C@@H](O)[C@H](O)[C@H]2O)[C@H](O)[C@H]1O[C@H]1O[C@H](CO)[C@@H](O)[C@H](N)[C@H]1O [Amikacin, amikacin] | no pre-treatment was required |  |  |  |  |  |  |  |  | Agar proportion susceptible (n isolates) (M. tuberculosis isolates [2]; listed as AMK): 31; D29 phage assay susceptible (n isolates) ([1]; listed as AMK): 31
